Values of other authors in patent US20150139938A1, “Methods and Compositions for Improving Pial Collateral Circulation and Treating Blood Clotting Disorders” (Ohio State Innovation Foundation, priority 2012, published 2015).

System: stroke-induced lesion in the brain of spontaneously hypertensive rats
Conditions: orally supplemented, earlier work of the inventors

CC(C)=CCC/C(C)=C/CC/C(C)=C/CC[C@]1(C)CCc2c(C)c(O)c(C)c(C)c2O1 [αTCT, α-tocotrienol]
protection against stroke-induced lesion in the brain: protects
